We go through eight compounds from patent US20230114728A1 (Venatorx Pharmaceuticals, Inc., priority 2019, published 2023).

Molecules are shown by their SMILES. In brackets after ≈: the same amount, converted by molar mass.

Holding throughout (assay): Broth microdilution MIC in iron-depleted CAMHB (IDM)
Type in all cases: cell-based

One test relates to A. baumannii ATCC 19606. The following applies: Acinetobacter baumannii, ATCC19606, read-out: Minimum Inhibitory Concentration, ATCC 19606. The essentials:
(§1)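 IDM = CAMHB stripped with Chelex 100 resin 2 h, supplemented CaCl2 82.5 mg/L, MgCl2 94.1 mg/L, ZnSO4 10 μM, pH 7.3. 2-fold compound dilutions; 2-8×10^5 CFU/mL; 37° C; Acinetobacter 20-24 h, Pseudomonas 16-20 h. Visual MIC.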

Test [1] relates to A. baumannii CDC-0033 producing NDM-1, and OXA-94. The following applies: Acinetobacter baumannii, read-out: Minimum Inhibitory Concentration, CDC-0033. The essentials:
as §1

Test [2] has as its system A. baumannii CDC-0036 OXA-65, and OXA-24. The conditions noted are these: Acinetobacter baumannii, read-out: Minimum Inhibitory Concentration, CDC-0036. The essentials:
as §1

The subject of test [3] is A. baumannii CDC-0083 producing NDM-1, PER-7, OXA-23, and OXA-69. The following applies: Acinetobacter baumannii, read-out: Minimum Inhibitory Concentration, CDC-0083. The essentials: as §1
Test [4] deals with P. aeruginosa (ΔmexAB-oprM). The following applies: Pseudomonas aeruginosa, read-out: Minimum Inhibitory Concentration, P. aeruginosa ΔmexAB-OprM. Put shortly: as §1
A further test has as its system P. aeruginosa ATCC 27853. The following applies: Pseudomonas aeruginosa, ATCC27853, read-out: Minimum Inhibitory Concentration, P. aeruginosa ATCC 27853. Put shortly:
as §1

In test [5] the test system is P. aeruginosa CDC-0054 producing VIM-4, OXA-50, and PAO. The conditions noted are these: Pseudomonas aeruginosa, read-out: Minimum Inhibitory Concentration, P. aeruginosa CDC-0054. Put shortly: as §1
The subject of test [6] is P. aeruginosa CDC-0095 producing OXA-50, and PAO. The conditions noted are these: Pseudomonas aeruginosa, read-out: Minimum Inhibitory Concentration, P. aeruginosa CDC-0095. Put shortly: as §1

As for `CCN1CCN(C(=O)N[C@H](C(=O)N[C@H]2Cc3ccc(F)c(C(=O)O)c3OB2O)c2c(F)cc(O)c(O)c2Cl)C(=O)C1=O` (single isomer, unassigned) [Example 125], the MIC (in the test on A. baumannii ATCC 19606; in test [1]; in test [2]; in test [3]; in test [4]; in the test with P. aeruginosa ATCC 27853) was above 128 µg/mL each time. Also, the MIC in test [5] and in test [6] was above 128 µg/mL throughout.
For the compound `NC1(CN2CCN(C(=O)N[C@@H](C(=O)N[C@H]3Cc4ccc(F)c(C(=O)O)c4OB3O)c3cc(F)c(O)c(O)c3Cl)C(=O)C2=O)CC1` (single isomer, unassigned) [Example 133], the MIC in the test with A. baumannii ATCC 19606 is 0.25 µg/mL (≈ 0.384 µM); in test [1], 8 to 16 µg/mL (≈ 12.3 to 24.5 µM); in test [2] it was 2 to 4 µg/mL (≈ 3.07 to 6.14 µM); in test [3], above 128 µg/mL; in test [4], 0.25 µg/mL (≈ 0.384 µM); with P. aeruginosa ATCC 27853, 0.5 to 1 µg/mL (≈ 0.767 to 1.53 µM). Further, the MIC in test [5] lay within 0.5 to 1 µg/mL (≈ 0.767 to 1.53 µM); in test [6], 2 to 4 µg/mL (≈ 3.07 to 6.14 µM).
As to `NC1(CN2CCN(C(=O)N[C@@H](C(=O)N[C@H]3Cc4ccc(F)c(C(=O)O)c4OB3O)c3c(F)cc(O)c(O)c3Cl)C(=O)C2=O)CC1` (single isomer, unassigned) [Example 134], the MIC in the test with A. baumannii ATCC 19606 is 0.5 to 1 µg/mL (≈ 0.767 to 1.53 µM); in test [1] it was 32 to 64 µg/mL (≈ 49.1 to 98.2 µM); in test [2], 8 to 16 µg/mL (≈ 12.3 to 24.5 µM); in test [3], above 128 µg/mL; in test [4] it was 0.25 µg/mL (≈ 0.384 µM); with P. aeruginosa ATCC 27853, 2 to 4 µg/mL (≈ 3.07 to 6.14 µM). The MIC in test [5] and in test [6] was 32 to 64 µg/mL (≈ 49.1 to 98.2 µM) throughout.
Take `NCCN1CCN(C(=O)N[C@@H](C(=O)N[C@H]2Cc3ccc(F)c(C(=O)O)c3OB2O)c2cc(F)c(O)c(O)c2Cl)C(=O)C1=O` (single isomer, unassigned) [Example 179]: the MIC in the test with A. baumannii ATCC 19606 was 0.5 to 1 µg/mL (≈ 0.799 to 1.6 µM); in test [1], 8 to 16 µg/mL (≈ 12.8 to 25.6 µM); in test [2] it was 2 to 4 µg/mL (≈ 3.2 to 6.39 µM); in test [3], above 128 µg/mL; in test [4], 0.25 µg/mL (≈ 0.4 µM); in the test with P. aeruginosa ATCC 27853, 0.5 to 1 µg/mL (≈ 0.799 to 1.6 µM). The MIC in test [5] was 0.5 to 1 µg/mL (≈ 0.799 to 1.6 µM); in test [6] it was 2 to 4 µg/mL (≈ 3.2 to 6.39 µM).
Consider `NCCCN1CCN(C(=O)N[C@@H](C(=O)N[C@H]2Cc3ccc(F)c(C(=O)O)c3OB2O)c2cc(F)c(O)c(O)c2Cl)C(=O)C1=O` (single isomer, unassigned) [Example 180], for which the MIC was 0.5 to 1 µg/mL (≈ 0.782 to 1.56 µM) in the test with A. baumannii ATCC 19606; 8 to 16 µg/mL (≈ 12.5 to 25 µM) in test [1]; 8 to 16 µg/mL (≈ 12.5 to 25 µM) in test [2]; above 128 µg/mL in test [3]; 0.25 µg/mL (≈ 0.391 µM) in test [4]; 0.5 to 1 µg/mL (≈ 0.782 to 1.56 µM) in the test on P. aeruginosa ATCC 27853. The MIC in test [5] was in the range of 0.5 to 1 µg/mL (≈ 0.782 to 1.56 µM); in test [6] it was 2 to 4 µg/mL (≈ 3.13 to 6.25 µM).
As to `C[C@@H](O)[C@@H](NC(=O)N1CCN(CCNC(=O)c2c(F)cc(O)c(O)c2Cl)C(=O)C1=O)C(=O)N[C@H]1Cc2ccc(F)c(C(=O)O)c2OB1O` [Example 102, (R)-3-((2R,3R)-2-(4-(2-(2-chloro-6-fluoro-3,4-dihydroxybenzamido)ethyl)-2,3-dioxopiperazine-1-carboxamido)-3-hydroxybutanamido)-7-fluoro-2-hydroxy-3,4-dihydro-2H-benzo[e][1,2]oxaborinine-8-carboxylic acid], the MIC was 2 to 4 µg/mL (≈ 2.87 to 5.73 µM) in the test on A. baumannii ATCC 19606; 32 to 64 µg/mL (≈ 45.9 to 91.7 µM) in test [1]; 32 to 64 µg/mL (≈ 45.9 to 91.7 µM) in test [2]; 32 to 64 µg/mL (≈ 45.9 to 91.7 µM) in test [3]; 0.5 to 1 µg/mL (≈ 0.717 to 1.43 µM) in test [4]; 2 to 4 µg/mL (≈ 2.87 to 5.73 µM) in the test with P. aeruginosa ATCC 27853. Moreover, the MIC in test [5] was 32 to 64 µg/mL (≈ 45.9 to 91.7 µM); in test [6], 2 to 4 µg/mL (≈ 2.87 to 5.73 µM).
Consider `NS(=O)(=O)Nc1cccc(C(NC(=O)N2CCN(Cc3c(F)cc(O)c(O)c3Cl)C(=O)C2=O)C(=O)N[C@H]2Cc3cccc(C(=O)O)c3OB2O)c1` (stereo partly drawn) [Example 131, (3R)-3-(2-(4-(2-chloro-6-fluoro-3,4-dihydroxybenzyl)-2,3-dioxopiperazine-1-carboxamido)-2-(3-(sulfamoylamino)phenyl)acetamido)-2-hydroxy-3,4-dihydro-2H-benzo[e][1,2]oxaborinine-8-carboxylic acid], for which the MIC with A. baumannii ATCC 19606 is above 128 µg/mL; in test [1], above 128 µg/mL; in test [2], above 128 µg/mL; in test [3], above 128 µg/mL; in test [4], 0.25 µg/mL (≈ 0.334 µM); in the test on P. aeruginosa ATCC 27853 it was 8 to 16 µg/mL (≈ 10.7 to 21.4 µM). In addition, the MIC is above 128 µg/mL in test [5] and 8 to 16 µg/mL (≈ 10.7 to 21.4 µM) in test [6].
Turning to `NS(=O)(=O)c1cc(O)cc(C(NC(=O)N2CCN(Cc3c(F)cc(O)c(O)c3Cl)C(=O)C2=O)C(=O)N[C@H]2Cc3cccc(C(=O)O)c3OB2O)c1` (stereo partly drawn) [Example 132, (3R)-3-(2-(4-(2-chloro-6-fluoro-3,4-dihydroxybenzyl)-2,3-dioxopiperazine-1-carboxamido)-2-(3-hydroxy-5-sulfamoylphenyl)acetamido)-2-hydroxy-3,4-dihydro-2H-benzo[e][1,2]oxaborinine-8-carboxylic acid], the MIC is 8 to 16 µg/mL (≈ 10.7 to 21.3 µM) with A. baumannii ATCC 19606; above 128 µg/mL in test [1]; above 128 µg/mL in test [2]; above 128 µg/mL in test [3]; 0.25 µg/mL (≈ 0.333 µM) in test [4]; 8 to 16 µg/mL (≈ 10.7 to 21.3 µM) with P. aeruginosa ATCC 27853. Also, the MIC in test [5] and in test [6] was above 128 µg/mL in each case.
